Experiments:
CRBN/DDB1 = CRBN/DDB1 (Homo sapiens, UniProt Q96SW2); experiment: HTRF binding assay (thalidomide probe displacement from CRBN/DDB1); details: CRBN/DDB1 2.5 nM, Cy5-Thalidomide 100 nM, 30 min; geometric mean; read-out: HTRF_Thali_Disp_DR—geo_IC50
Method in brief: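 Displacement of Cy5-thalidomide probe (100 nM) from CRBN/DDB1 (2.5 nM) with anti-His Tb cryptate in 20 mM HEPES, 20 mM NaCl, 0.2 mM TCEP, 0.2 mM EDTA, 0.005% Tween20; 10-point 1:3 series, 30 min ambient. HTRF 665/620 ratio; IC50 by 4-parameter fit, Ki via Cheng-Prusoff.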

SKCO1 = experiment: GI50 growth inhibition, CyQUANT, SKCO1; type: cell-based; details: Homo sapiens, SK-CO-1, SKCO1 cells, 120 to 168 hours
Procedure: (§1) SKCO1, LS180, and LS174T cell lines were purchased from ATCC. CW2 cell line was purchased from Riken. GP2D cell line was purchased from Sigma/ECACC. All cell lines were cultured in manufacturer's recommended media at 37° C., 5% CO2. Briefly, cells were suspended in 200 μL of media and seeded at 300 to 1,800 cells per well in tissue culture treated 96-well plates with black walls and clear bottom. Plates were incubated overnight and initial (T0) read was performed the following day using CyQUANT Direct Cell Proliferation Assay Kit (Thermo Fisher Scientific) according to manufacturer's protocol. All compounds were solubilized in DMSO and prepared at 3-fold serial dilution, using 9 points starting at 30 μM as highest concentration, administered to cells and incubated for 120 to 168 hours, at which point CyQUANT assay measurement was performed using Acumen Cellista instrument (Ex/Em 480/520 nm). Media-only wells were used as blank, and 0.3% DMSO was used as DMSO-treated cell control. Growth inhibition (percent response) was calculated using the following formula in Excel: “=if ([Compound treated Day N]>[Untreated Day 0, AVG], ([Compound treated Day N]−[Untreated Day 0, AVG])/([Untreated Day N]−[Untreated Day 0, AVG])*100, ([Compound Treated Day N]−[Untreated Day 0, AVG])/([Untreated Day 0, AVG])*100)”. GI50 is the response corresponding to the 50% of untreated control.
(§2) GI50 data are reported in Tables 4a, 4b, 4c, 4d, and 4e for compounds in Table 1. In Tables 4a, 4b, 4c, 4d, and 4e below, According to the code, A represents a GI50 value of ≤0.1 μM, B represents a GI50 value>0.1 μM and ≤1 μM, C represents an GI50 value>1 μM.

CW2 = experiment: GI50 growth inhibition, CyQUANT, CW2; type: cell-based; details: Homo sapiens, CW-2, CW2 cells, 120 to 168 hours
Procedure: as §1, §2

GP2D = experiment: GI50 growth inhibition, CyQUANT, GP2D; type: cell-based; details: GP2D cells, 120 to 168 hours
Procedure: as §1, §2

LS180 = experiment: GI50 growth inhibition, CyQUANT, LS180; type: cell-based; details: Homo sapiens, LS180 cells, 120 to 168 hours
Procedure: as §1, §2

LS174T = experiment: GI50 growth inhibition, CyQUANT, LS174T; type: cell-based; details: Homo sapiens, LS174T cells, 120 to 168 hours
Procedure: as §1, §2

Chain of CRBN/DDB1 (Q96SW2 whole entry): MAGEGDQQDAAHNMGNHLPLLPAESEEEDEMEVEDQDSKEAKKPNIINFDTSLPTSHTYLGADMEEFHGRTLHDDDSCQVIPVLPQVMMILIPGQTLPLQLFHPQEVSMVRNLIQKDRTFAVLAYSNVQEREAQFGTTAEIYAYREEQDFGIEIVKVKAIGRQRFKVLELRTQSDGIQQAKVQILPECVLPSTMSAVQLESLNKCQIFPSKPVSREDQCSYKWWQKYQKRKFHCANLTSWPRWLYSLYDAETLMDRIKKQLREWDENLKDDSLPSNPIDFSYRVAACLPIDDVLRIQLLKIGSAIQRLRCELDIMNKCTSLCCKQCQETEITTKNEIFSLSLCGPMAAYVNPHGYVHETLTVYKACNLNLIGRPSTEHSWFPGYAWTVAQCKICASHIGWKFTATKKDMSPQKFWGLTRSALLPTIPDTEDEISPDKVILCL
Chain of CRBN/DDB1 (Q16531 whole entry partner): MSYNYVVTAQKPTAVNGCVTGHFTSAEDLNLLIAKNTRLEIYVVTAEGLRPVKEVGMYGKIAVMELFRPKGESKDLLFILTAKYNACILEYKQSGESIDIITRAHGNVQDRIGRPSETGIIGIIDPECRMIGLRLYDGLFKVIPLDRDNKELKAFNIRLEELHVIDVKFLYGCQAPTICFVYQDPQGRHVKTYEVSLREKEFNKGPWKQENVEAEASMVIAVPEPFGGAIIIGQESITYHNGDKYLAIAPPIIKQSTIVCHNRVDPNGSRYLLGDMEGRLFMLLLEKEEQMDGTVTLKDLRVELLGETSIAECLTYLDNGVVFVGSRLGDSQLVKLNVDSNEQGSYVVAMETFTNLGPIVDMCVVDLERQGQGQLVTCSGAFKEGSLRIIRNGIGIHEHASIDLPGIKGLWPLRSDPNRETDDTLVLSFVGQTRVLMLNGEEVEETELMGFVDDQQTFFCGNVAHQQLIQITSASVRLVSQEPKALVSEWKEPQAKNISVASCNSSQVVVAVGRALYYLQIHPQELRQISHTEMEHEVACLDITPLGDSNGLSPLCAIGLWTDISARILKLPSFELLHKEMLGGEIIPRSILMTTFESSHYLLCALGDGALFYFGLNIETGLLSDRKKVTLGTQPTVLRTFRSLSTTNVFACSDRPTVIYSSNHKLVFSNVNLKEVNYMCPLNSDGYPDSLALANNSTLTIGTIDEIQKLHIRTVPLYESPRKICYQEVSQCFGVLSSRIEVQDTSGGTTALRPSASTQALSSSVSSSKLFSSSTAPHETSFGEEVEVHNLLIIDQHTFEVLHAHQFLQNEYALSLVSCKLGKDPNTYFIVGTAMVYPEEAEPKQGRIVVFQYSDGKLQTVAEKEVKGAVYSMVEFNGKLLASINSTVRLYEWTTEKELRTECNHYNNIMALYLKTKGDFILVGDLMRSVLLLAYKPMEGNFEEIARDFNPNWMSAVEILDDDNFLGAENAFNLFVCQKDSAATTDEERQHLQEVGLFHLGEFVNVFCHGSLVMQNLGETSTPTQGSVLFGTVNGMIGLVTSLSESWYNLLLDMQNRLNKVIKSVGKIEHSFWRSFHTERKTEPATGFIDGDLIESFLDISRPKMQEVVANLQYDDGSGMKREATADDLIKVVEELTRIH

Row | IC50 (CRBN/DDB1) [µM] | GI50 (SKCO1) [µM] | SMILES | GI50 (CW2) [µM] | GI50 (GP2D) [µM] | GI50 (LS180) [µM] | GI50 (LS174T) [µM]
1 | 0.1 to 1 | 0.1 to 1 | O=C1CCC(N2Cc3cc(NC(=O)c4ccc(Cl)cc4)ccc3C2=O)C(=O)N1 (stereo not drawn) [Compound 147] | 0.1 to 1 | > 1 | > 1 | > 1
2 | 0.1 to 1 | < 0.1 | O=C1CCC(N2Cc3cc(NC(=O)c4ncn(-c5ccccc5)c4C(F)(F)F)ccc3C2=O)C(=O)N1 (stereo not drawn) [Compound 154, N-(2-(2,6-dioxopiperidin-3-yl)-1-oxoisoindolin-5-yl)-1-phenyl-5-(trifluoromethyl)-1H-imidazole-4-carboxamide] | < 0.1 | 0.1 to 1 | 0.1 to 1 | 0.1 to 1

From patent US20250115582A1, “MOLECULAR GLUE DEGRADERS AND METHODS OF USING THE SAME” (Monte Rosa Therapeutics, Inc., priority 2022, published 2025)
